Type in all cases: in vivo
Assay [1] has as its system Beet Armyworm (Spodoptera exigua) ("BAW"), second instar larvae. Description: Bioassay on beet armyworm (BAW), 128-well diet tray assay. As to conditions: Spodoptera exigua, read-out: BAW (Biological Results, rating). The procedure, abridged:
(§1)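 Second-instar larvae on diet in 128-well trays, covered and held at 25° C, 14:10 light-dark, for five to seven days. Percent mortality scored per well and averaged over eight wells; activity reported as a rating category.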

In assay [2] the test system is Green Peach Aphid ("GPA") (Myzus persicae), wingless adult and nymph stages. The assay is described as follows: Bioassay on green peach aphid (GPA), foliar spray on infested cabbage seedlings. The following applies: Myzus persicae, foliar, 72 h, read-out: GPA (Biological Results, rating). The procedure:
Certain molecules disclosed in this document were tested against GPA using procedures described in the following example. In the reporting of the results, the “GPA Rating Table” was used (See Table Section).
Cabbage seedlings grown in 3-inch pots, with 2-3 small (3-5 cm) true leaves, were used as test substrate. The seedlings were infested with 20-50 GPA (wingless adult and nymph stages) one day prior to chemical application. Four pots with individual seedlings were used for each treatment. Test compounds (2 mg) were dissolved in 2 mL of acetone/methanol (1:1) solvent, forming stock solutions of 1000 ppm test compound. […] A hand-held aspirator-type sprayer was used for spraying a solution to both sides of […] leaves until runoff. Reference plants (solvent check) were sprayed with the diluent only containing 20% by volume of acetone/methanol (1:1) solvent. Treated plants were held in a holding room for three days at approximately 25° C. and ambient relative humidity (RH) prior to grading. Evaluation was conducted by counting the number of live aphids per plant under a microscope.
Corrected % Control=100*(X−Y)/X • where • X=No. of live aphids on solvent check plants and • Y=No. of live aphids on treated plants
The results are indicated in the table entitled “Table ABC: Biological Results” (See Table Section).

In assay [3] the test system is Cabbage Looper (Trichoplusia ni) ("CL"), second instar larvae. The assay is described as follows: Bioassay on cabbage looper (CL), 128-well diet tray assay. As to conditions: Trichoplusia ni, read-out: CL (Biological Results, rating). The method in brief:
as §1

Consider `CCc1cc(-c2ncn(-c3ccc(OC(F)(F)F)cc3)n2)ccc1NC(=O)/N=C1\SCC(=O)N1c1cc(C)ccc1OCC(F)(F)F` [Compound J75, (Z)-1-(2-Ethyl-4-(1-(4-(trifluoromethoxy)phenyl)-1H-1,2,4-triazol-3-yl)phenyl)-3-(3-(5-methyl-2-(2,2,2-trifluoroethoxy)phenyl)-4-oxothiazolidin-2-ylidene)urea], for which the pest or weed control at 50 µg/cm2 in assay [1] and in assay [3] was 50 to 100% in each case. Also, the pest or weed control at 200 µg/mL in assay [2] lay in the range of 0 to 80%.
With `CC(=O)c1ccc(C(C)C)c(N2C(=O)CS/C2=N\C(=O)Nc2ccc(-c3ncn(-c4ccc(OC(F)(F)F)cc4)n3)cc2F)c1` [Compound J77, (Z)-1-(3-(5-Acetyl-2-isopropylphenyl)-4-oxothiazolidin-2-ylidene)-3-(2-fluoro-4-(1-(4-(trifluoromethoxy)phenyl)-1H-1,2,4-triazol-3-yl)phenyl)urea], the pest or weed control at 50 µg/cm2 in assay [1] and in assay [3] was 50 to 100% each time. Besides, the pest or weed control at 200 µg/mL in assay [2] was 0 to 80%.
In the case of `CC(C)c1ccccc1N1C(=O)CS/C1=N\C(=O)Nc1ccc(-c2ncn(-c3ccc(OC(F)(F)F)cc3)n2)cc1F` [Compound J86, (Z)-1-(2-Fluoro-4-(1-(4-(trifluoromethoxy)phenyl)-1H-1,2,4-triazol-3-yl)phenyl)-3-(3-(2-isopropylphenyl)-4-oxothiazolidin-2-ylidene)urea], the pest or weed control at 50 µg/cm2 in assay [1] and in assay [3] was 50 to 100% throughout. In assay [2], the pest or weed control at 200 µg/mL is 0 to 80%.
Regarding `COC(C)c1ccccc1N1C(=O)CS/C1=N\C(=O)Nc1ccc(-c2ncn(-c3ccc(OC(F)(F)F)cc3)n2)cc1F` (stereo not drawn) [Compound J87, (Z)-1-(2-Fluoro-4-(1-(4-(trifluoromethoxy)phenyl)-1H-1,2,4-triazol-3-yl)phenyl)-3-(3-(2-(1-methoxyethyl)phenyl)-4-oxothiazolidin-2-ylidene)urea], the pest or weed control at 50 µg/cm2 in assay [1] and in assay [3] was 50 to 100% each time. Also, the pest or weed control at 200 µg/mL in assay [2] lay within 0 to 80%.
On to `N#Cc1ccc(OCCC(F)(F)F)c(N2C(=O)CS/C2=N\C(=O)Nc2ccc(-c3ncn(-c4ccc(OC(F)(F)F)cc4)n3)cc2F)c1` [Compound J103, (Z)-1-(3-(5-Cyano-2-(3,3,3-trifluoropropoxy)phenyl)-4-oxothiazolidin-2-ylidene)-3-(2-fluoro-4-(1-(4-(trifluoromethoxy)phenyl)-1H-1,2,4-triazol-3-yl)phenyl)urea], for which the pest or weed control at 50 µg/cm2 in assay [1] and in assay [3] was 50 to 100% each time. In assay [2], the pest or weed control at 200 µg/mL is 0 to 80%.
In the case of `COC(=O)c1ccc(C(C)C)c(N2C(=O)CS/C2=N\C(=O)Nc2ccc(-c3ncn(-c4ccc(OC(F)(F)F)cc4)n3)cc2F)c1` [Compound J104, Methyl (Z)-3-(2-(((2-fluoro-4-(1-(4-(trifluoromethoxy)phenyl)-1H-1,2,4-triazol-3-yl)phenyl)carbamoyl)imino)-4-oxothiazolidin-3-yl)-4-isopropylbenzoate], the pest or weed control at 50 µg/cm2 in assay [1] and in assay [3] was 50 to 100% in each case. Also, the pest or weed control at 200 µg/mL in assay [2] was in the range of 0 to 80%.
With `CN(C)c1ccc(OCCC(F)(F)F)c(N2C(=O)CS/C2=N\C(=O)Nc2ccc(-c3ncn(-c4ccc(OC(F)(F)F)cc4)n3)cc2F)c1` [Compound J105, (Z)-1-(3-(5-(Dimethylamino)-2-(3,3,3-trifluoropropoxy)phenyl)-4-oxothiazolidin-2-ylidene)-3-(2-fluoro-4-(1-(4-(trifluoromethoxy)phenyl)-1H-1,2,4-triazol-3-yl)phenyl)urea], the pest or weed control at 50 µg/cm2 in assay [1] and in assay [3] was 50 to 100% in each case. For the same molecule, the pest or weed control at 200 µg/mL in assay [2] fell in the range of 0 to 80%.
On to `Cc1cc(-c2ncn(-c3ccc(OC(F)(F)F)cc3)n2)ccc1NC(=O)/N=C1\SCC(=O)N1c1ccc(N(C)C)cc1C(C)C` [Compound J113, (Z)-1-(3-(4-(Dimethylamino)-2-isopropylphenyl)-4-oxothiazolidin-2-ylidene)-3-(2-methyl-4-(1-(4-(trifluoromethoxy)phenyl)-1H-1,2,4-triazol-3-yl)phenyl)urea], for which the pest or weed control at 50 µg/cm2 in assay [1] and in assay [3] was 50 to 100% in each case. Besides, the pest or weed control at 200 µg/mL in assay [2] lay in the range of 0 to 80%.
Turning to `CC(C)c1ccc(N(C)C)cc1N1C(=O)CS/C1=N\C(=O)Nc1ccc(-c2ncn(-c3ccc(OC(F)(F)F)cc3)n2)cc1C(F)(F)F` [Compound J116, (Z)-1-(3-(5-(Dimethylamino)-2-isopropylphenyl)-4-oxothiazolidin-2-ylidene)-3-(4-(1-(4-(trifluoromethoxy)phenyl)-1H-1,2,4-triazol-3-yl)-2-(trifluoromethyl)phenyl)urea], the pest or weed control at 50 µg/cm2 in assay [1] and in assay [3] was 50 to 100% in each case. Further, the pest or weed control at 200 µg/mL in assay [2] lay in the range of 0 to 80%.
For the molecule `COC(C)c1ccc(C)cc1N1C(=O)CS/C1=N\C(=O)Nc1ccc(-c2ncn(-c3cccc(C(F)(F)F)c3)n2)cc1F` (stereo not drawn) [Compound J119, (Z)-1-(2-Fluoro-4-(1-(3-(trifluoromethyl)phenyl)-1H-1,2,4-triazol-3-yl)phenyl)-3-(3-(2-(1-methoxyethyl)-5-methylphenyl)-4-oxothiazolidin-2-ylidene)urea], the pest or weed control at 50 µg/cm2 in assay [1] and in assay [3] was 50 to 100% in each case. Besides, in assay [2], the pest or weed control at 200 µg/mL lay within 0 to 80%.
For the molecule `COC(C)c1ccc(C)cc1N1C(=O)CS/C1=N\C(=O)Nc1ccc(-c2ncn(-c3cccc(OC(F)(F)F)c3)n2)cc1F` (stereo not drawn) [Compound J120, (Z)-1-(2-Fluoro-4-(1-(3-(trifluoromethoxy)phenyl)-1H-1,2,4-triazol-3-yl)phenyl)-3-(3-(2-(1-methoxyethyl)-5-methylphenyl)-4-oxothiazolidin-2-ylidene)urea], the pest or weed control at 50 µg/cm2 in assay [1] and in assay [3] was 50 to 100% in each case. In addition, the pest or weed control at 200 µg/mL in assay [2] lay in the range of 0 to 80%.
Regarding `Cc1ccc(OCC(F)(F)F)c(N2C(=O)CS/C2=N\C(=O)Nc2ccc(-c3ncn(-c4cccc(C(F)(F)F)c4)n3)cc2F)c1` [Compound J122, (Z)-1-(2-Fluoro-4-(1-(3-(trifluoromethyl)phenyl)-1H-1,2,4-triazol-3-yl)phenyl)-3-(3-(5-methyl-2-(2,2,2-trifluoroethoxy)phenyl)-4-oxothiazolidin-2-ylidene)urea], the pest or weed control at 50 µg/cm2 in assay [1] and in assay [3] was 50 to 100% each time. The pest or weed control at 200 µg/mL in assay [2] lay within 0 to 80%.
As for `Cc1ccc(COCC(F)(F)F)c(N2C(=O)CS/C2=N\C(=O)Nc2ccc(-c3ncn(-c4ccc(OC(F)(F)F)cc4)n3)cc2F)c1` [Compound J123, (Z)-1-(2-fluoro-4-(1-(4-(trifluoromethoxy)phenyl)-1H-1,2,4-triazol-3-yl)phenyl)-3-(3-(5-methyl-2-((2,2,2-trifluoroethoxy)methyl)phenyl)-4-oxothiazolidin-2-ylidene)urea], the pest or weed control at 50 µg/cm2 in assay [1] and in assay [3] was 50 to 100% throughout. Also, the pest or weed control at 200 µg/mL in assay [2] was 0 to 80%.
For `CNc1ccc(C(C)C)c(N2C(=O)CS/C2=N\C(=O)Nc2ccc(-c3ncn(-c4ccc(OC(F)(F)F)cc4)n3)cc2C)c1` [Compound J126, (Z)-1-(3-(2-Isopropyl-5-(methylamino)phenyl)-4-oxothiazolidin-2-ylidene)-3-(2-methyl-4-(1-(4-(trifluoromethoxy)phenyl)-1H-1,2,4-triazol-3-yl)phenyl)urea], the pest or weed control at 50 µg/cm2 in assay [1] and in assay [3] was 50 to 100% throughout. Moreover, in assay [2], the pest or weed control at 200 µg/mL lay in the range of 0 to 80%.
Consider `CCNc1ccc(C(C)C)c(N2C(=O)CS/C2=N\C(=O)Nc2ccc(-c3ncn(-c4ccc(OC(F)(F)F)cc4)n3)cc2C)c1` [Compound J127, (Z)-1-(3-(5-(Ethylamino)-2-isopropylphenyl)-4-oxothiazolidin-2-ylidene)-3-(2-methyl-4-(1-(4-(trifluoromethoxy)phenyl)-1H-1,2,4-triazol-3-yl)phenyl)urea], for which the pest or weed control at 50 µg/cm2 in assay [1] and in assay [3] was 50 to 100% in each case. The pest or weed control at 200 µg/mL in assay [2] was 0 to 80%.
Take `COc1ccc(C(C)C)c(N2C(=O)CS/C2=N\C(=O)Nc2ccc(-c3ncn(-c4cccc(C(F)(F)F)c4)n3)cc2C)c1` [Compound J132, (Z)-1-(3-(2-Isopropyl-5-methoxyphenyl)-4-oxothiazolidin-2-ylidene)-3-(2-methyl-4-(1-(3-(trifluoromethyl)phenyl)-1H-1,2,4-triazol-3-yl)phenyl)urea]: the pest or weed control at 50 µg/cm2 in assay [1] and in assay [3] was 50 to 100% each time. Also, the pest or weed control at 200 µg/mL in assay [2] is 0 to 80%.
As to `Cc1cc(-c2ncn(-c3cccc(C(F)(F)F)c3)n2)ccc1NC(=O)/N=C1\SCC(=O)N1c1cc(N(C)C)ccc1C(C)C` [Compound J133, (Z)-1-(3-(5-(Dimethylamino)-2-isopropylphenyl)-4-oxothiazolidin-2-ylidene)-3-(2-methyl-4-(1-(3-(trifluoromethyl)phenyl)-1H-1,2,4-triazol-3-yl)phenyl)urea], the pest or weed control at 50 µg/cm2 in assay [1] and in assay [3] was 50 to 100% throughout. The pest or weed control at 200 µg/mL in assay [2] lay in the range of 0 to 80%.

Values taken from patent US20230077362A1 (CORTEVA AGRISCIENCE LLC, priority 2019, published 2023).
